Legend:
CCRF-CEM = assay: CCK-8 tumor cell proliferation IC50, CCRF-CEM; conditions: Homo sapiens, CCRF-CEM cells, compounds designed based on the IRAK4 inhibitors, read-out: Inhibitory activity (IC50, nM) on tumor cell proliferation, CCRF-CEM
Description: (§1) The tumor cells used herein were cultured in a cell culture medium listed in table A1 at 37° C. in an incubator with 5% CO2. Prior to experimentation, all cell lines used were correctly identified by STR profiling, and tested negative for mycoplasma contamination using a mycoplasma detection kit through routine screenings.
(§2) IC50 values of the compounds of the present disclosure (including the compounds in Table 1, and compounds of examples) were measured using the Meilun Cell Counting Kit-8 kit from Dalian Meilun Biotech Co., Ltd. Assay details are as follows: tumor cells were seeded in a 96-well plate at a density listed in Table A2. After 24 h, 100 μL of the inoculated cells were treated with 0.5 μL of the compounds of the present disclosure (including the compounds in Tables 1 and 2, and compounds of examples) at 10 different successively decreasing concentrations (starting at the highest concentration of 1 μM; 5-fold serial dilutions). […] The growth inhibition of the compounds of the present disclosure on cells was plotted by Prism Graphpad software, and the IC50 values of the compounds of the present disclosure were calculated therefrom.

SR = assay: CCK-8 tumor cell proliferation IC50, SR; conditions: Homo sapiens, SR cells, compounds designed based on the IRAK4 inhibitors, read-out: Inhibitory activity (IC50, nM) on tumor cell proliferation, SR
Description: as §1, §2

MV-4-11 = assay: CCK-8 tumor cell proliferation IC50, MV-4-11; conditions: Homo sapiens, MV4-11, MV-4-11 cells, compounds designed based on the IRAK4 inhibitors, read-out: Inhibitory activity (IC50, nM) on tumor cell proliferation, MV-4-11
Description: as §1, §2

LNcap = assay: CCK-8 tumor cell proliferation IC50, LNcap; conditions: Homo sapiens, Lncap cells, compounds designed based on the IRAK4 inhibitors, read-out: Inhibitory activity (IC50, nM) on tumor cell proliferation, Lncap
Description: as §1, §2

Jurkat = assay: CCK-8 tumor cell proliferation IC50, Jurkat; conditions: Homo sapiens, Jurkat cells, compounds designed based on the IRAK4 inhibitors, read-out: Inhibitory activity (IC50, nM) on tumor cell proliferation, Jurkat
Description: as §1, §2

H1299 = assay: CCK-8 tumor cell proliferation IC50, H1299; parameters: species or system human; conditions: Homo sapiens, NCI-H1299, H1299 cells, compounds designed based on the IRAK4 inhibitors, read-out: Inhibitory activity (IC50, nM) on tumor cell proliferation, H1299
Description: as §1
as §2, with “dilutions). After the cells were treated with the compounds of the present disclosure for a period of time, the cell viability detection reagent was added to the culture medium for cell viability assessment according to the instructions provided with the CCK-8 kit.” for “dilutions).”

Cc1cc(-c2nc(C(=O)Nc3cc4oc(N5CCOCC5)nc4nc3N3CC[C@@H](O)C3)co2)ccn1 [emavusertib]
IC50 (CCRF-CEM): > 10000 nM | IC50 (SR): > 10000 nM | IC50 (MV-4-11): 50 to 100 nM | IC50 (LNcap): > 10000 nM | IC50 (Jurkat): > 10000 nM | IC50 (H1299): > 10000 nM
